Source: doi:10.1101/2024.08.25.609621 (bioRxiv, 2024)
Read-outs that look alike come from different tables or passages of the source.

Target: SARS-CoV-2 NSP3 macrodomain (Mac1), P43 crystal form (Severe acute respiratory syndrome coronavirus 2, UniProt P0DTD1)
Format: binding
Details: for 1-BDC: PanDDA background density correction; for X-ray crystal structure: X-ray crystal structure determined (TRUE); for Total number of conformations: ligand conformations modeled in Mac1 crystal structure; for 2*(1-BDC) (%): occupancy estimate from PanDDA 1-BDC; for Binding site: site of ligand in X-ray crystal structure; for X-ray crystallography: Binding site: site where the ligand is bound in the X-ray crystal structure
[1] = crystal soak 10 mM, P43 crystals
[2] = crystal soak, soak concentration 10 mM
[3] = crystal soak, soak concentration 10 mM, TRUE = ligand hit

Compound | 1-BDC | X-ray crystal structure | Pandda run, overall: Hit [1] | Pandda run, overall: Modeled [1] | PanDDA run, DMSO background map: 1-BDC (crystal soak 10 mM) | PanDDA run, DMSO background map: Hit (crystal soak 10 mM) | Total number of conformations | 2*(1-BDC) (%) | Binding site | X-ray crystallography: Binding site | Pandda run, overall: Modeling comment [1] | PanDDA run, TFA/DMSO background map: 1-BDC (crystal soak 10 mM) | PanDDA run, TFA/DMSO background map: Hit (crystal soak 10 mM) | Pandda run, overall: Modeled [2] | Pandda run, overall: Hit [3] | PanDDA run, DMSO background map: 1-BDC (soak concentration 10 mM) | PanDDA run, DMSO background map: Hit (soak concentration 10 mM) | Pandda run, overall: Modeling comment [2] | PanDDA run, TFA/DMSO background map: 1-BDC (soak concentration 10 mM) | PanDDA run, TFA/DMSO background map: Hit (soak concentration 10 mM)
Cc1ccc(CC(CO)Nc2ncnc3[nH]ccc23)cc1C (stereo not drawn) [AVI-3684] | 0.15 | TRUE | TRUE | TRUE | 0.15 | TRUE | 2 | 30 | Adenosine | – | – | – | – | – | – | – | – | – | – | –
OCC1CCCN1c1ncnc2[nH]ccc12 (stereo not drawn) [AVI-3685] | 0.25 | – | TRUE | TRUE | 0.25 | TRUE | 1 | 50 | – | Adenosine | – | – | – | – | – | – | – | – | – | –
OCC(Cc1ccc(I)cc1)Nc1ncnc2[nH]ccc12 (stereo not drawn) [AVI-3686] | 0.2 | TRUE | TRUE | TRUE | 0.2 | TRUE | 2 | 40 | Adenosine | – | – | – | – | – | – | – | – | – | – | –
O=C(O)C(F)(F)F.OCC(Nc1ncnc2[nH]ccc12)C(O)C1CCCCC1 (stereo not drawn) [AVI-3687] | – | – | TRUE | – | 0.15 | TRUE | – | – | – | – | Weak density, not modeled | 0.08 | TRUE | – | – | – | – | – | – | –
O=C(O)C(F)(F)F.OCC1(Nc2ncnc3[nH]ccc23)CC1 [AVI-3688] | 0.2 | TRUE | TRUE | TRUE | 0.2 | TRUE | 1 | 40 | Adenosine | – | – | – | – | – | – | – | – | – | – | –
OCC(CC1CCCCC1)Nc1ncnc2[nH]ccc12 (stereo not drawn) [AVI-3690] | 0.12 | TRUE | TRUE | TRUE | 0.12 | TRUE | 1 | 24 | Adenosine | – | Weak density for alternative ligand conformation | – | – | – | – | – | – | – | – | –
OCC(CC1CCCC1)Nc1ncnc2[nH]ccc12 (stereo not drawn) [AVI-3691] | 0.18 | TRUE | TRUE | TRUE | 0.18 | TRUE | 1 | 36 | Adenosine | – | – | – | – | – | – | – | – | – | – | –
OCC(Nc1ncnc2[nH]ccc12)C1CCc2ccccc21 (stereo not drawn) [AVI-3693] | 0.22 | TRUE | TRUE | TRUE | 0.22 | TRUE | 2 | 44 | Adenosine | – | – | – | – | – | – | – | – | – | – | –
OCC(Cc1ccccn1)Nc1ncnc2[nH]ccc12 (stereo not drawn) [AVI-3696] | 0.13 | TRUE | TRUE | TRUE | 0.13 | TRUE | 2 | 26 | Adenosine | – | – | – | – | – | – | – | – | – | – | –
OCC(O)C1CCCN1c1ncnc2[nH]ccc12 (stereo not drawn) [AVI-3701] | 0.18 | – | – | – | – | – | 1 | 36 | – | Adenosine | – | – | – | TRUE | TRUE | 0.18 | TRUE | – | – | –
O=C(O)C(F)(F)F.OC[C@H]1CC2(CN1c1ncnc3[nH]ccc13)OCCO2 [AVI-3702] | 0.21 | – | – | – | – | – | 1 | 42 | – | Adenosine | – | – | – | TRUE | TRUE | 0.21 | TRUE | – | – | –
OCC(Cc1cncs1)Nc1ncnc2[nH]ccc12 (stereo not drawn) [AVI-3703] | 0.15 | TRUE | – | – | – | – | 1 | 30 | Adenosine | – | – | – | – | TRUE | TRUE | 0.15 | TRUE | – | – | –
OCC(Cc1ccoc1)Nc1ncnc2[nH]ccc12 (stereo not drawn) [AVI-3705] | 0.21 | TRUE | – | – | – | – | 1 | 42 | Adenosine | – | – | – | – | TRUE | TRUE | 0.21 | TRUE | – | – | –
O=C(O)C(F)(F)F.OCC(Cc1cccc(F)c1)Nc1ncnc2[nH]ccc12 (stereo not drawn) [AVI-3706] | – | – | – | – | – | – | – | – | – | – | – | – | – | – | – | – | – | TFA only | – | –
OCC1CC2(CCOCC2)CN1c1ncnc2[nH]ccc12 (stereo not drawn) [AVI-3707] | 0.21 | – | – | – | – | – | 1 | 42 | – | Adenosine | – | – | – | TRUE | TRUE | 0.21 | TRUE | Distal site, weak density, not modeled | – | –
OCC(COCc1ccccc1)Nc1ncnc2[nH]ccc12 (stereo not drawn) [AVI-3709] | 0.19 | TRUE | – | – | – | – | 2 | 38 | Adenosine | – | – | – | – | TRUE | TRUE | 0.19 | TRUE | – | – | –
O=C(O)C(F)(F)F.OC[C@@H]1CC2(CC2)CN1c1ncnc2[nH]ccc12 [AVI-3710] | 0.26 | – | – | – | – | – | 2 | 52 | – | Adenosine | – | – | – | TRUE | TRUE | 0.26 | TRUE | Weak density for open state of Phe132 loop | – | –
OCC(Cc1cccs1)Nc1ncnc2[nH]ccc12 (stereo not drawn) [AVI-3711] | 0.21 | TRUE | – | – | – | – | 1 | 42 | Adenosine | – | – | – | – | TRUE | TRUE | 0.21 | TRUE | – | – | –
O=C(O)C(F)(F)F.OCC1C2C=CC(C2)N1c1ncnc2[nH]ccc12 (stereo not drawn) [AVI-3712] | – | – | – | – | – | – | – | – | – | – | – | – | – | – | TRUE | 0.15 | TRUE | Weak density, not modeled | 0.05 | TRUE
CC(C)(C)C(O)CC(CO)Nc1ncnc2[nH]ccc12.O=C(O)C(F)(F)F (stereo not drawn) [AVI-3714] | – | – | – | – | – | – | – | – | – | – | – | – | – | – | – | – | – | TFA only | – | –
